Results from PMC9500072, “Topical application of an irreversible small molecule inhibitor of lysyl oxidases ameliorates skin scarring and fibrosis” (Nature Communications, 2022).

Legend:
[1] = target: Nicotinic Acetylcholine α1, Bungarotoxin (Homo sapiens, UniProt P02708+P07510+Q07001); assay: Eurofins panel 258700; type: binding; conditions: read-out: % Inh.
[2] = system: Calcium Channel L-Type, Benzothiazepine; assay: Eurofins panel 214510; type: binding, rat; conditions: 10 µM
[3] = target: Potassium Channel [KATP] (Cricetus cricetus, UniProt Q09427); assay: Eurofins panel 265600; type: binding, ham
Excerpt: (§1) PXS-4787 competes with a model substrate (putrescine) for the LOX binding site (Fig. 2d). The allylamine of PXS-4787 interacts with the co-factor of the enzyme and elicits mechanism-based inhibition (Fig. 2e). Through careful optimization, and in contrast to BAPN, PXS-4787 selectivity targets lysyl oxidases and is neither an inhibitor of, nor a substrate for, related oxidases (Fig. 2f, g and Supplementary Table S1). Furthermore, PXS-4787 was clean when profiled in a broad panel of macromolecular targets using enzyme and radioligand binding assays (LeadProfilingScreen, Eurofins CEREP Panlabs, 68 assays, test concentration 10 µM; Supplementary Data S1).

[4] = system: Purinergic P2Y; assay: Eurofins panel 268810; type: binding, rat; conditions: 10 µM
[5] = target: Epidermal Growth Factor (EGF) (Homo sapiens, UniProt P00533); assay: Eurofins panel 225510; type: binding
[6] = target: Dopamine D4.2 (Homo sapiens, UniProt P21917, DEL265-296); assay: Eurofins panel 219900; type: binding
[7] = system: lysyl oxidases; assay: Time-dependency of inhibition (pre-incubation times); type: biochemical; parameters: Fig. 2B activity: scale not given here
Excerpt: as §1
Data are expressed as mean ± SEM. Subsequent statistical analysis was performed with unpaired two-sided Student’s t tests. *p < 0.05, **p < 0.01, ***p < 0.001and ****p < 0.0001. Source data are provided as a Source Data file.
The measurement of the enzymatic activity of all lysyl oxidase family members was based on the detection of hydrogen peroxide with an Amplex-Red oxidation assay, as previously described; miniaturized in 384 well formats, with the appropriate combination of substrate and assay buffer for each individual enzyme. After a 30 min pre-incubation of the enzyme at 37 °C with the test compound (or with different incubation times for the time-dependency assay), one volume of reaction mixture containing 120 μM Amplex Red (AR) (Life Technologies), 1.5 U/mL horseradish peroxidase (HRP) (Sigma-Aldrich) and the specific substrate was added to each sample. The relative fluorescence units (RFU) were then measured every 2.5 min for 30 min at 37 °C, excitation 565 nm and emission 590, on a BMG Clariostar Microplate Reader. All the substrates were used at concentrations corresponding to their Km towards the corresponding enzyme, or with a range of different concentrations for the substrate competition experiments.

[8] = target: Transporter, GABA (Rattus norvegicus, UniProt P23978); assay: Eurofins panel 226400; type: binding
[9] = system: MDCKII cells transfected with P-glycoprotein (Pgp); assay: MDCKII-Pgp permeability; type: in vitro ADME; conditions: unaffected by the presence of the Pgp-inhibitor
Procedure: (§2) The penetration of PXS-6302 across a monolayer of cells was tested using Caco-2 or MDCKII cells transfected with P-glycoprotein (Pgp).

[10] = target: Vasopressin V1A (Homo sapiens, UniProt P37288); assay: Eurofins panel 287530; type: binding
[11] = Caco-2 permeability; type: in vitro ADME; conditions: human, Caco-2
Procedure: as §2

[12] = system: Caco-2 cells; assay: Caco-2 permeability; type: in vitro ADME
Procedure: as §2

Sequence of Vasopressin V1A (P37288 whole entry): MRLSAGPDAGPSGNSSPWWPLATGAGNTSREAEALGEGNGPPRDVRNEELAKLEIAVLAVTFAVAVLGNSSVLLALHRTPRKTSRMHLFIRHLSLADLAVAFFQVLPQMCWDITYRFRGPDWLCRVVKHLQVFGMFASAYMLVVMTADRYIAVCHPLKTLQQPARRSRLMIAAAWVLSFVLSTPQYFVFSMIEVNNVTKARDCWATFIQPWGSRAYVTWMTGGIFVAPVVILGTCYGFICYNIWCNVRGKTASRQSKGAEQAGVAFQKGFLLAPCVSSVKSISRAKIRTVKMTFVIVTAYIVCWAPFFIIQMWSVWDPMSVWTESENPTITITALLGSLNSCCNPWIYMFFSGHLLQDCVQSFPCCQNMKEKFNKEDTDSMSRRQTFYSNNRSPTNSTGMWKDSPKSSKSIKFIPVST
Sequence of Potassium Channel [KATP] (Q09427 whole entry): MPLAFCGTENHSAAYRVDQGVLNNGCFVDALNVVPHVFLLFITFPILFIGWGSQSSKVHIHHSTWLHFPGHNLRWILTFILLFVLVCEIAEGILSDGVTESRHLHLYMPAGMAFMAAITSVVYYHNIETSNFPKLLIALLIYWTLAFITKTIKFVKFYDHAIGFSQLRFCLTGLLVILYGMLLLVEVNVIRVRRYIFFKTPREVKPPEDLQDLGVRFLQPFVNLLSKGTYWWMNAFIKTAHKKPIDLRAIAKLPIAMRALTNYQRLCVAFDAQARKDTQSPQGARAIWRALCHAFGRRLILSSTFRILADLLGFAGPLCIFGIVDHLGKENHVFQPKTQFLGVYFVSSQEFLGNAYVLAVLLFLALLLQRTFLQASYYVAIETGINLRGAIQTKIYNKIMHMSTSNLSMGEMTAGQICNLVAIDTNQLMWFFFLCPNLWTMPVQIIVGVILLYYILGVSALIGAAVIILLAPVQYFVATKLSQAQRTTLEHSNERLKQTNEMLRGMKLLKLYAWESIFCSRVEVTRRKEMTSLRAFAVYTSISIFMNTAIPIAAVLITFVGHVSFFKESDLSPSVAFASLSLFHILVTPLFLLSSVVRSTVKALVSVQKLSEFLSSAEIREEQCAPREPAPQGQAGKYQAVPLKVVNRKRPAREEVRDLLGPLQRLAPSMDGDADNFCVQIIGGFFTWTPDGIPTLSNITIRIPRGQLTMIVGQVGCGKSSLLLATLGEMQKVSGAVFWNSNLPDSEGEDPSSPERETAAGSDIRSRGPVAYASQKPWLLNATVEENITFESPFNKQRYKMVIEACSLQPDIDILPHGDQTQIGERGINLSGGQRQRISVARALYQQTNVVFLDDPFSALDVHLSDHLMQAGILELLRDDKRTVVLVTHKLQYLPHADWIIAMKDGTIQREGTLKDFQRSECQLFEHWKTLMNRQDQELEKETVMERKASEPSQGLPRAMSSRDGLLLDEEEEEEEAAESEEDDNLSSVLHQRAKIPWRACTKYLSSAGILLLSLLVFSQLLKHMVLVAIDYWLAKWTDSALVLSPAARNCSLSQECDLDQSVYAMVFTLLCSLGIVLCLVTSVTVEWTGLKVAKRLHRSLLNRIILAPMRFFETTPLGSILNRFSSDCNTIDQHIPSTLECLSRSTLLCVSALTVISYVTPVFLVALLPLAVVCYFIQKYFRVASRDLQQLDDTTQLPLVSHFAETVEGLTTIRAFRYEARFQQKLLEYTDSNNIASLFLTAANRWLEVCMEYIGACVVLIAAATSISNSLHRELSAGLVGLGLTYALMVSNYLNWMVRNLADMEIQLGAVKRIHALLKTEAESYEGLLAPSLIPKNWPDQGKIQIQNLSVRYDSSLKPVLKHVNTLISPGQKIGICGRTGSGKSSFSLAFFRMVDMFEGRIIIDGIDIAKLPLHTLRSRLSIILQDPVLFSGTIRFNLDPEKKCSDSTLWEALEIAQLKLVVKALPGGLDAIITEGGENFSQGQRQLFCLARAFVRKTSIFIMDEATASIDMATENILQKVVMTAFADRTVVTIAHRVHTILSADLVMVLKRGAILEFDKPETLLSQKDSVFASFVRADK
Sequence of Nicotinic Acetylcholine α1, Bungarotoxin (P07510 23-517): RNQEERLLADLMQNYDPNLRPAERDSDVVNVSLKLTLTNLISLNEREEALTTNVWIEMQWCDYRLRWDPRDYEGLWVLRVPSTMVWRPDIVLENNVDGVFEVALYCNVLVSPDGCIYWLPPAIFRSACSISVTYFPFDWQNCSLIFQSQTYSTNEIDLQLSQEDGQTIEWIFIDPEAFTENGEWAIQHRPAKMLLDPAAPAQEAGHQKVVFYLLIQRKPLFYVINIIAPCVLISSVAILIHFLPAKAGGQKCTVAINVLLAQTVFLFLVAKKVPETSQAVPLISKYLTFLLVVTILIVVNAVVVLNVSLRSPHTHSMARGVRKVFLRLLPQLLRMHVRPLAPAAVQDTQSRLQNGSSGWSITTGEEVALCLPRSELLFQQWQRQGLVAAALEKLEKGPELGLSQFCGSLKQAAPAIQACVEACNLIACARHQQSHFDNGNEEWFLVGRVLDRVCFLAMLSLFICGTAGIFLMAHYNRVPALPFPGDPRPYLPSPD
Sequence of Nicotinic Acetylcholine α1, Bungarotoxin (P11230 24-501, further chain): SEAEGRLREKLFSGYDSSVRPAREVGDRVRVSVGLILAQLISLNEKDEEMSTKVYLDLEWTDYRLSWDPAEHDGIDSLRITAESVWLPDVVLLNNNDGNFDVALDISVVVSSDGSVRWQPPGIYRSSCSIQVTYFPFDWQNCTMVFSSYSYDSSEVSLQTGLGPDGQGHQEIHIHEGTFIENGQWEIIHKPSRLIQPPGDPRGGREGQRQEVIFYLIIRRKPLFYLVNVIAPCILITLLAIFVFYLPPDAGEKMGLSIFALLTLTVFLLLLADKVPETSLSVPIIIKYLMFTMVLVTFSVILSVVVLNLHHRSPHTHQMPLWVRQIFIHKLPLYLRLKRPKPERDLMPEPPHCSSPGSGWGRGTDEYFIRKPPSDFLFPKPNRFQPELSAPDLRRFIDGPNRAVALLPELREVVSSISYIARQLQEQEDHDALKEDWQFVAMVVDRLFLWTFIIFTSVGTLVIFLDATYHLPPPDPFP
Sequence of Nicotinic Acetylcholine α1, Bungarotoxin (P02708 21-457): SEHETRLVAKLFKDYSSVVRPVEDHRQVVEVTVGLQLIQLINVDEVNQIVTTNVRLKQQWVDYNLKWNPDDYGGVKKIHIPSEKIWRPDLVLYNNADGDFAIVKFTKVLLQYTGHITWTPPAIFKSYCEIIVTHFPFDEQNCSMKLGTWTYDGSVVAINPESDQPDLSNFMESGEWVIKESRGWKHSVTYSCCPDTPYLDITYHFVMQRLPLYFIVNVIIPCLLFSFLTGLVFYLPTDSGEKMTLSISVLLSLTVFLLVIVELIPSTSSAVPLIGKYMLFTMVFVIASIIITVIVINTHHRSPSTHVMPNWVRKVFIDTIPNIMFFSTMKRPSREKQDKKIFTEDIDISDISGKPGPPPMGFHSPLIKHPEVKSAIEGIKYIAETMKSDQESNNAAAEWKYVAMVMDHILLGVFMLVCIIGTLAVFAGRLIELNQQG
Sequence of Nicotinic Acetylcholine α1, Bungarotoxin (Q07001 22-517): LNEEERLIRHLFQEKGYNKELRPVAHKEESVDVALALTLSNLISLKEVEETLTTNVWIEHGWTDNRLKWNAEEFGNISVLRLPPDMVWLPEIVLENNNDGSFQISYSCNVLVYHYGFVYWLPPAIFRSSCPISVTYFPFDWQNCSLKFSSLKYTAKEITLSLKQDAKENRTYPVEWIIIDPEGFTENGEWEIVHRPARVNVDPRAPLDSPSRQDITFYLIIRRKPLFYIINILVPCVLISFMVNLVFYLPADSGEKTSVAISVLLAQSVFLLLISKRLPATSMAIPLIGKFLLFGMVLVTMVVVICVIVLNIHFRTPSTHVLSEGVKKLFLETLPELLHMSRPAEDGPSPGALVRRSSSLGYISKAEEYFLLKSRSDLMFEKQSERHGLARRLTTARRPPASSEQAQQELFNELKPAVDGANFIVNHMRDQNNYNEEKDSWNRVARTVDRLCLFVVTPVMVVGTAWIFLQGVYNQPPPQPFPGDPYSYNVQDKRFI
Sequence of Dopamine D4.2 (P21917 with tags, fused parts or gaps DEL265-296): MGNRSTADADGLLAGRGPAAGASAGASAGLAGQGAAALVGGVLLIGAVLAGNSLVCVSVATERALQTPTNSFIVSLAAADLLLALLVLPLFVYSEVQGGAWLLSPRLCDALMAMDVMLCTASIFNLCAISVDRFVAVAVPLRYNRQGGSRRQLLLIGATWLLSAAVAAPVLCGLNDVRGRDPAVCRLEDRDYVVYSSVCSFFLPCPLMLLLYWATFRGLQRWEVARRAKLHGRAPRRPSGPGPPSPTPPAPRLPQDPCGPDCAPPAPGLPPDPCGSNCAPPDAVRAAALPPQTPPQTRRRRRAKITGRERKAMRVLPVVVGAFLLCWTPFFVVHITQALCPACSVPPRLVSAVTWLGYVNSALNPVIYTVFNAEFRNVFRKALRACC

## NC/C=C(\F)CS(=O)(=O)c1ccccc1 [PXS-4787]
[1]
  inhibition at 10 µM: -3%
[2]
  % Inh.: 24%
[3]
  inhibition at 10 µM: 0%
[4]
  % Inh.: 2%
[5]
  inhibition at 10 µM: 1%
[6]
  inhibition at 10 µM: 1%
[7]
  potency versus pre-incubation time: increased potency upon longer pre-incubation times
[7]; 1.69333e-10, pre-incubation 0 min
  Fig. 2B activity: 106.286
[7]; 1.69333e-10, pre-incubation 15 min
  Fig. 2B activity: 104.086
[7]; 1.69333e-10, pre-incubation 30 min
  Fig. 2B activity: 108.652
[7]; 1.69333e-10, pre-incubation 1 h
  Fig. 2B activity: 105.245
[7]; 1.69333e-10, pre-incubation 2 h
  Fig. 2B activity: 105.759
[7]; 1.69333e-10, pre-incubation 4 h
  Fig. 2B activity: 111.637
[7]; 5.08e-10, pre-incubation 0 min
  Fig. 2B activity: 102.267
[7]; 5.08e-10, pre-incubation 15 min
  Fig. 2B activity: 101.228
[7]; 5.08e-10, pre-incubation 30 min
  Fig. 2B activity: 106.873
[7]; 5.08e-10, pre-incubation 1 h
  Fig. 2B activity: 98.3282
[7]; 5.08e-10, pre-incubation 2 h
  Fig. 2B activity: 107.568
[7]; 5.08e-10, pre-incubation 4 h
  Fig. 2B activity: 110.707
[7]; 1.52e-9, pre-incubation 0 min
  Fig. 2B activity: 101.124
[7]; 1.52e-9, pre-incubation 15 min
  Fig. 2B activity: 102.218
[7]; 1.52e-9, pre-incubation 30 min
  Fig. 2B activity: 107.03
[7]; 1.52e-9, pre-incubation 1 h
  Fig. 2B activity: 103.614
[7]; 1.52e-9, pre-incubation 2 h
  Fig. 2B activity: 102.685
[7]; 1.52e-9, pre-incubation 4 h
  Fig. 2B activity: 110.751
[7]; 4.57e-9, pre-incubation 0 min
  Fig. 2B activity: 99.5583
[7]; 4.57e-9, pre-incubation 15 min
  Fig. 2B activity: 100.144
[7]; 4.57e-9, pre-incubation 30 min
  Fig. 2B activity: 103.756
[7]; 4.57e-9, pre-incubation 1 h
  Fig. 2B activity: 101.013
[7]; 4.57e-9, pre-incubation 2 h
  Fig. 2B activity: 107.904
[7]; 4.57e-9, pre-incubation 4 h
  Fig. 2B activity: 105.302
[7]; 1.37e-8, pre-incubation 0 min
  Fig. 2B activity: 96.8423
[7]; 1.37e-8, pre-incubation 15 min
  Fig. 2B activity: 98.2429
[7]; 1.37e-8, pre-incubation 30 min
  Fig. 2B activity: 101.141
[7]; 1.37e-8, pre-incubation 1 h
  Fig. 2B activity: 101.758
[7]; 1.37e-8, pre-incubation 2 h
  Fig. 2B activity: 104.569
[7]; 1.37e-8, pre-incubation 4 h
  Fig. 2B activity: 105.34
[7]; 4.12e-8, pre-incubation 0 min
  Fig. 2B activity: 98.5025
[7]; 4.12e-8, pre-incubation 15 min
  Fig. 2B activity: 98.7481
[7]; 4.12e-8, pre-incubation 30 min
  Fig. 2B activity: 99.9026
[7]; 4.12e-8, pre-incubation 1 h
  Fig. 2B activity: 99.6216
[7]; 4.12e-8, pre-incubation 2 h
  Fig. 2B activity: 100.024
[7]; 4.12e-8, pre-incubation 4 h
  Fig. 2B activity: 98.7222
[7]; 1.23e-7, pre-incubation 0 min
  Fig. 2B activity: 98.6918
[7]; 1.23e-7, pre-incubation 15 min
  Fig. 2B activity: 98.1432
[7]; 1.23e-7, pre-incubation 30 min
  Fig. 2B activity: 101.367
[7]; 1.23e-7, pre-incubation 1 h
  Fig. 2B activity: 90.8141
[7]; 1.23e-7, pre-incubation 2 h
  Fig. 2B activity: 90.2595
[7]; 1.23e-7, pre-incubation 4 h
  Fig. 2B activity: 86.2099
[7]; 3.7e-7, pre-incubation 0 min
  Fig. 2B activity: 96.5147
[7]; 3.7e-7, pre-incubation 15 min
  Fig. 2B activity: 94.9326
[7]; 3.7e-7, pre-incubation 30 min
  Fig. 2B activity: 97.5329
[7]; 3.7e-7, pre-incubation 1 h
  Fig. 2B activity: 85.2822
[7]; 3.7e-7, pre-incubation 2 h
  Fig. 2B activity: 74.251
[7]; 3.7e-7, pre-incubation 4 h
  Fig. 2B activity: 62.6684
[7]; 1.11e-6, pre-incubation 0 min
  Fig. 2B activity: 94.3157
[7]; 1.11e-6, pre-incubation 15 min
  Fig. 2B activity: 89.9671
[7]; 1.11e-6, pre-incubation 30 min
  Fig. 2B activity: 87.3566
[7]; 1.11e-6, pre-incubation 1 h
  Fig. 2B activity: 64.8977
[7]; 1.11e-6, pre-incubation 2 h
  Fig. 2B activity: 45.9612
[7]; 1.11e-6, pre-incubation 4 h
  Fig. 2B activity: 15.2083
[7]; 3.33e-6, pre-incubation 0 min
  Fig. 2B activity: 92.0439
[7]; 3.33e-6, pre-incubation 15 min
  Fig. 2B activity: 82.8346
[7]; 3.33e-6, pre-incubation 30 min
  Fig. 2B activity: 63.1887
[7]; 3.33e-6, pre-incubation 1 h
  Fig. 2B activity: 32.0154
[7]; 3.33e-6, pre-incubation 2 h
  Fig. 2B activity: 13.0848
[7]; 3.33e-6, pre-incubation 4 h
  Fig. 2B activity: 1.062
[7]; 10 µM, after 2 h
  inhibition of the least sensitive lysyl oxidase: complete inhibition
[7]; 1e-5, pre-incubation 0 min
  Fig. 2B activity: 71.7944
[7]; 1e-5, pre-incubation 15 min
  Fig. 2B activity: 51.1738
[7]; 1e-5, pre-incubation 30 min
  Fig. 2B activity: 24.7148
[7]; 1e-5, pre-incubation 1 h
  Fig. 2B activity: 3.779
[7]; 1e-5, pre-incubation 2 h
  Fig. 2B activity: 2.199
[7]; 1e-5, pre-incubation 4 h
  Fig. 2B activity: 0.1194
[7]; 3e-5, pre-incubation 0 min
  Fig. 2B activity: 46.8993
[7]; 3e-5, pre-incubation 15 min
  Fig. 2B activity: 20.2974
[7]; 3e-5, pre-incubation 30 min
  Fig. 2B activity: 5.217
[7]; 3e-5, pre-incubation 1 h
  Fig. 2B activity: 1.087
[7]; 3e-5, pre-incubation 2 h
  Fig. 2B activity: 2.027
[7]; 3e-5, pre-incubation 4 h
  Fig. 2B activity: -1.502
[8]
  inhibition at 10 µM: 0%

## NC/C=C(\F)C(F)(F)S(=O)(=O)c1ccccc1 [PXS-6302]
[9]
  MDCKII-Pgp permeability (class in words): high permeability
[10]
  inhibition at 30 µM: 3%
[11]; read-out: CaCo2 efflux ratio
  efflux ratio: 0.8
[11]; read-out: CaCo2 permeability Papp
  Papp: 34 ×10⁻⁶ cm/s
[12]
  CaCo2 permeability (class in words): High and high permeability
